Like-named read-outs stand apart in the source and are kept apart here.
Columns and labels:
Parameters in all cases: dose or concentration left out as unconfirmed
CCR4 = target: T1, CCR4 (Homo sapiens, UniProt P51679); experiment: Figure S2a opioid peptide screen on chemokine receptors; format: cell-based
T1 construct: expressed in transfected cells
T1 sequence (P51679 1-360): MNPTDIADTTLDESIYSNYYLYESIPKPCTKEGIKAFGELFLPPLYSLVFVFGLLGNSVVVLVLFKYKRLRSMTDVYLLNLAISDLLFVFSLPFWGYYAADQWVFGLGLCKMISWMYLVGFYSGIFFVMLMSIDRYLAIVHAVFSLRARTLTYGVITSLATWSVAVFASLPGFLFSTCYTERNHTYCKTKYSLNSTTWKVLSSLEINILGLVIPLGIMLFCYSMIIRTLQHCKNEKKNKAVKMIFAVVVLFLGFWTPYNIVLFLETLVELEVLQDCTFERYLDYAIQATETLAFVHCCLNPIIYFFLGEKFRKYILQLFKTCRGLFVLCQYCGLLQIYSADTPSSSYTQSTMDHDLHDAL

CXCR2 = target: T2, CXCR2 (Homo sapiens, UniProt P25025); experiment: as above; format: cell-based
T2 construct: expressed in transfected cells
T2 sequence (P25025 1-360): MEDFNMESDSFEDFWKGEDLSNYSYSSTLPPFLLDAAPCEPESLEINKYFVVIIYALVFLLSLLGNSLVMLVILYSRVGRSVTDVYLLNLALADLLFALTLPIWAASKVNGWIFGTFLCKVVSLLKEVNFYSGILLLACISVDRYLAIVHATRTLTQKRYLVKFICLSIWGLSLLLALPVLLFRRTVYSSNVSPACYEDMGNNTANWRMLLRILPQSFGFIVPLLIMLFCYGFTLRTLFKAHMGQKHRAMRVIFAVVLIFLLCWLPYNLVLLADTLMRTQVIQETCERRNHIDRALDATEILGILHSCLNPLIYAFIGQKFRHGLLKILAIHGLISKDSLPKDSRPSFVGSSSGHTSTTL

CCR9 = target: T3, CCR9 (Homo sapiens, UniProt P51686); experiment: as above; format: cell-based
T3 construct: expressed in transfected cells
T3 sequence (P51686 1-369): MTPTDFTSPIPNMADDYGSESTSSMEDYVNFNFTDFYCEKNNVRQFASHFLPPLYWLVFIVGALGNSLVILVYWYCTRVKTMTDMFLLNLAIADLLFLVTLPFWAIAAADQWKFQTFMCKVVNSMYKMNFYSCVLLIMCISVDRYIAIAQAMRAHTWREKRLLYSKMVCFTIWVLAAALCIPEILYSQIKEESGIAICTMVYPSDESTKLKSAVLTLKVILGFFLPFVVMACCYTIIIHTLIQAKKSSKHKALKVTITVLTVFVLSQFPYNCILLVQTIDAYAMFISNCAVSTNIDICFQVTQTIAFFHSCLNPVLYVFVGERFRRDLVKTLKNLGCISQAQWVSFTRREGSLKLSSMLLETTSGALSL

ACKR3 = ACKR3 (Homo sapiens, UniProt P25106); experiment: cell-based; settings: read-out: ACKR3 activity, ctrl+ = 100, Figure S2a
ACKR3, sequence (P25106 whole entry): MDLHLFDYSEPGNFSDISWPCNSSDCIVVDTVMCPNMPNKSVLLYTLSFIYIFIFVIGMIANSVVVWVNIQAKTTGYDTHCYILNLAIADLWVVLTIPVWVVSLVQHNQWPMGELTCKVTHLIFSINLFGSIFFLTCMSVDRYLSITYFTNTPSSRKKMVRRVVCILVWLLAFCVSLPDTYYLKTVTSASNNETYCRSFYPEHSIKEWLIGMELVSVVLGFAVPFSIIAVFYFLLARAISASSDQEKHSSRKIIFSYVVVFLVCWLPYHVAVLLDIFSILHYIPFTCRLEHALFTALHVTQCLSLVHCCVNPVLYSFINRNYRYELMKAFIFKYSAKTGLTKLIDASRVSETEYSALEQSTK

CXCR6 = target: T4, CXCR6 (Homo sapiens, UniProt O00574); experiment: Figure S2a opioid peptide screen on chemokine receptors; format: cell-based
T4 construct: expressed in transfected cells
T4 sequence (O00574 whole entry): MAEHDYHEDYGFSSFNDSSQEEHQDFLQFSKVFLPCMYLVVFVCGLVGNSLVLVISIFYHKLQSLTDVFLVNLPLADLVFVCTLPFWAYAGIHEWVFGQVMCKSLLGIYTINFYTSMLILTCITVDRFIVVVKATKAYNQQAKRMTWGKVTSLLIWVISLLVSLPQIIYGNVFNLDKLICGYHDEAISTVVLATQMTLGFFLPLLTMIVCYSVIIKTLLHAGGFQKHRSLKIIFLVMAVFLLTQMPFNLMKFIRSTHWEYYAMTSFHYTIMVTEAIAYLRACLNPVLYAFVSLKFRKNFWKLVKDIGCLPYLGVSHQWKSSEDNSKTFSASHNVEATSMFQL

CXCR3A = target: T5, CXCR3A (Homo sapiens, UniProt P49682); experiment: as above; format: cell-based
T5 construct: expressed in transfected cells; host or cells: U87 cells
T5 sequence (P49682 1-368): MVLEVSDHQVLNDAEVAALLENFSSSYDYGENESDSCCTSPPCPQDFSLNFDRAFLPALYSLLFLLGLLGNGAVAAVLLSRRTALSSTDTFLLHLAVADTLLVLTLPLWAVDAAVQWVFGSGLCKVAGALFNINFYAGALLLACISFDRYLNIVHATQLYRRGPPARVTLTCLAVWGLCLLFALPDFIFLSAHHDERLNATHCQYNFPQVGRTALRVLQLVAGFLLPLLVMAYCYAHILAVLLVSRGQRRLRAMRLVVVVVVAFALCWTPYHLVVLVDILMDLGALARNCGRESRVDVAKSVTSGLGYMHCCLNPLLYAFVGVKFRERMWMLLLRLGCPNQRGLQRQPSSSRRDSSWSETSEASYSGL

CCR2 = target: T6, CCR2 (Homo sapiens, UniProt P41597); experiment: as above; format: cell-based
T6 construct: expressed in transfected cells
T6 sequence (P41597 1-360 isoform P41597-2): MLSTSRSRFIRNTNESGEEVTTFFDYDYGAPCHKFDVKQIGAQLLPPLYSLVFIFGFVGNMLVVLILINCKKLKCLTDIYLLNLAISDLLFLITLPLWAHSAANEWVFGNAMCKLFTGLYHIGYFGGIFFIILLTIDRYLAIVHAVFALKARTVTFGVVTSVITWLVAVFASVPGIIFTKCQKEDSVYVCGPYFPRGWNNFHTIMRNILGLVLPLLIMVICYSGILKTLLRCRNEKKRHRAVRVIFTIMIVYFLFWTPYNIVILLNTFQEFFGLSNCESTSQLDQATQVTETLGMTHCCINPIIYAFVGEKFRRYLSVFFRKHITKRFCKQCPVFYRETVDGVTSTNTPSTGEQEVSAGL

CXCR4 = target: T7, CXCR4 (Homo sapiens, UniProt P61073); experiment: cell-based
T7 construct: expressed in transfected cells; host or cells: U87, transient cotransfection of pNBe vectors
T7 sequence (P61073 whole entry): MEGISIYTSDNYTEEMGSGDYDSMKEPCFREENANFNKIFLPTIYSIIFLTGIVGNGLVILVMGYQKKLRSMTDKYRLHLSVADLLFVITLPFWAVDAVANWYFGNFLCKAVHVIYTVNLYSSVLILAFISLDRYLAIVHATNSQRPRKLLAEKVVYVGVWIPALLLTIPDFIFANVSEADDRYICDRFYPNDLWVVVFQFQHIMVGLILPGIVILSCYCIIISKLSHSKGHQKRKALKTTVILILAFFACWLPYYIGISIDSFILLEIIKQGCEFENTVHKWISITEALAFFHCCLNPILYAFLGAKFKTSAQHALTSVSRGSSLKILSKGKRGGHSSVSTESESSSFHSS

[1] = replicate 1, read-out: CCR4 activity, ctrl+ = 100
[2] = replicate 2, read-out: CCR4 activity, ctrl+ = 100
[3] = replicate 3, read-out: CCR4 activity, ctrl+ = 100
[4] = replicate 1, read-out: CXCR2 activity, ctrl+ = 100
[5] = replicate 2, read-out: CXCR2 activity, ctrl+ = 100
[6] = replicate 3, read-out: CXCR2 activity, ctrl+ = 100
[7] = replicate 1, read-out: CCR9 activity, ctrl+ = 100
[8] = replicate 2, read-out: CCR9 activity, ctrl+ = 100
[9] = replicate 3, read-out: CCR9 activity, ctrl+ = 100
[10] = replicate 1, read-out: CXCR6 activity, ctrl+ = 100
[11] = replicate 2, read-out: CXCR6 activity, ctrl+ = 100
[12] = replicate 3, read-out: CXCR6 activity, ctrl+ = 100
[13] = replicate 1, read-out: CXCR3A activity, ctrl+ = 100
[14] = replicate 2, read-out: CXCR3A activity, ctrl+ = 100
[15] = replicate 3, read-out: CXCR3A activity, ctrl+ = 100
[16] = replicate 1, read-out: CCR2 activity, ctrl+ = 100
[17] = replicate 2, read-out: CCR2 activity, ctrl+ = 100
[18] = replicate 3, read-out: CCR2 activity, ctrl+ = 100
[19] = Figure S2a, replicate 1, read-out: CXCR4 activity, ctrl+ = 100
[20] = Figure S2a, replicate 2, read-out: CXCR4 activity, ctrl+ = 100
[21] = Figure S2a, replicate 3, read-out: CXCR4 activity, ctrl+ = 100

Compound | activation (CCR4; [1]) [%] | activation (CCR4; [2]) [%] | activation (CCR4; [3]) [%] | activation (CXCR2; [4]) [%] | activation (CXCR2; [5]) [%] | activation (CXCR2; [6]) [%] | activation (CCR9; [7]) [%] | activation (CCR9; [8]) [%] | activation (CCR9; [9]) [%] | activation (ACKR3; replicate 1) [%] | activation (ACKR3; replicate 2) [%] | activation (ACKR3; replicate 3) [%] | activation (CXCR6; [10]) [%] | activation (CXCR6; [11]) [%] | activation (CXCR3A; [13]) [%] | activation (CXCR3A; [14]) [%] | activation (CCR2; [16]) [%] | activation (CCR2; [17]) [%] | activation (CXCR4; [19]) [%] | activation (CXCR4; [20]) [%] | further results
CSCC[C@H](NC(=O)[C@H](Cc1ccccc1)NC(=O)CNC(=O)CNC(=O)[C@@H](N)Cc1ccc(O)cc1)C(=O)N[C@@H](CCCNC(=N)N)C(=O)N[C@@H](CCCNC(=N)N)C(=O)N[C@H](C(N)=O)C(C)C [Adrenorphin] | -4.72 | -4.07 | 2.73 | 3.42 | -6.62 | -0.394 | 0.345 | -0.997 | 2.74 | 111 | 55.3 | 84.5 | 0.866 | -0.941 | -0.787 | 0.214 | -0.901 | -1.07 | -0.233 | 14 | activation (CXCR6; [12]): -0.716%; activation (CXCR3A; [15]): 3.64%; activation (CCR2; [18]): -1.1%; activation (CXCR4; [21]): 3.91%
CSCC[C@H](NC(=O)[C@H](Cc1ccccc1)NC(=O)CNC(=O)CNC(=O)[C@@H](N)Cc1ccc(O)cc1)C(=O)N[C@@H](CCCNC(=N)N)C(=O)N[C@@H](CCCNC(=N)N)C(=O)N[C@H](C(=O)NCC(=O)N[C@@H](CCCNC(=N)N)C(=O)N1CCC[C@H]1C(=O)N[C@@H](CCC(=O)O)C(=O)N[C@@H](Cc1c[nH]c2ccccc12)C(=O)N[C@@H](Cc1c[nH]c2ccccc12)C(=O)N[C@@H](CCSC)C(=O)N[C@@H](CC(=O)O)C(=O)N[C@@H](Cc1ccc(O)cc1)C(=O)N[C@@H](CCC(N)=O)C(=O)N[C@@H](CCCCN)C(=O)N[C@@H](CCCNC(=N)N)C(=O)N[C@@H](Cc1ccc(O)cc1)C(=O)NCC(=O)O)C(C)C [BAM22] | -0.405 | -3.44 | 3.02 | -3.38 | -4.91 | -1.55 | -0.202 | -2.13 | 5.56 | 104 | 61.3 | 104 | -0.237 | -0.939 | 3.44 | 2.11 | -0.243 | -1.08 | – | – | activation (CXCR6; [12]): -1.21%; activation (CXCR3A; [15]): 7.49%; activation (CCR2; [18]): 1.22%; activation (CXCR4; read-out: CXCR4 activity, ctrl+ = 100, Figure S2a, replicate 1): 22.9%; activation (CXCR4; read-out: CXCR4 activity, ctrl+ = 100, Figure S2a, replicate 2): 27.7%; activation (CXCR4; read-out: CXCR4 activity, ctrl+ = 100, Figure S2a, replicate 3): -6.34%
CC[C@H](C)[C@H](NC(=O)[C@H](CCCNC(=N)N)NC(=O)[C@H](CCCNC(=N)N)NC(=O)[C@H](CC(C)C)NC(=O)[C@H](Cc1ccccc1)NC(=O)CNC(=O)CNC(=O)[C@@H](N)Cc1ccc(O)cc1)C(=O)N[C@@H](CCCNC(=N)N)C(=O)N1CCC[C@H]1C(=O)N[C@@H](CCCCN)C(=O)N[C@@H](CC(C)C)C(=O)N[C@@H](CCCCN)C(=O)O [Dynorphin 1-13] | 0.25 | -3.89 | – | -2.31 | -22.4 | – | -2.31 | -1.58 | – | 136 | 52.9 | – | 0.0731 | -1.13 | -2.15 | -8.16 | -0.833 | -2.52 | 13.2 | -40.8 | –
CC[C@H](C)[C@H](NC(=O)[C@H](CCCNC(=N)N)NC(=O)[C@H](CCCNC(=N)N)NC(=O)[C@H](CC(C)C)NC(=O)[C@H](Cc1ccccc1)NC(=O)CNC(=O)CN)C(=O)N[C@@H](CCCNC(=N)N)C(=O)N1CCC[C@H]1C(=O)N[C@@H](CCCCN)C(=O)N[C@@H](CC(C)C)C(=O)N[C@@H](CCCCN)C(=O)N[C@@H](Cc1c[nH]c2ccccc12)C(=O)N[C@@H](CC(=O)O)C(=O)N[C@@H](CC(N)=O)C(=O)N[C@@H](CCC(N)=O)C(=O)O [Dynorphin 2-17] | -4.06 | -1.12 | – | -7.18 | -15.9 | – | 1.95 | 0.179 | – | 72.7 | 26.1 | – | -0.523 | -1.13 | -4.16 | -10.2 | 0.747 | -1.44 | -9.77 | -26.7 | –
CC[C@H](C)[C@H](NC(=O)[C@H](CCCNC(=N)N)NC(=O)[C@H](CCCNC(=N)N)NC(=O)[C@H](CC(C)C)NC(=O)[C@H](Cc1ccccc1)NC(=O)CNC(=O)CNC(=O)[C@@H](N)Cc1ccc(O)cc1)C(=O)N[C@@H](CCCNC(=N)N)C(=O)N1CCC[C@H]1C(=O)N[C@@H](CCCCN)C(=O)N[C@@H](CC(C)C)C(=O)N[C@@H](CCCCN)C(=O)N[C@@H](Cc1c[nH]c2ccccc12)C(=O)N[C@@H](CC(=O)O)C(=O)N[C@@H](CC(N)=O)C(=O)N[C@@H](CCC(N)=O)C(=O)O [Dynorphin A] | -3.55 | 0.0408 | 5 | -9.63 | -9.59 | 0.355 | 0.116 | -0.279 | 10.9 | 127 | 60.7 | 99 | -0.0479 | -0.578 | -4.75 | -3.36 | -0.0585 | -2.61 | -6.67 | -56.8 | activation (CXCR6; [12]): 0.283%; activation (CXCR3A; [15]): 7.92%; activation (CCR2; [18]): -0.105%; activation (CXCR4; [21]): 36.5%

Source: publication PMC7305236, “The atypical chemokine receptor ACKR3/CXCR7 is a broad-spectrum scavenger for opioid peptides” (Nature Communications, 2020)
